Reference: patent US6855346B2, “Pharmaceutical composition having prophylactic effects on lamivudine-related disease relapse and drug resistance and methods of using the same” (priority 2001, dated 2005)
Marks after values point to notes of the source that are not given here.

Key:
Type in all cases: in vivo, human
[1] = tested on: ALT; experiment: Clinical study of YGK and lamivudine in chronic hepatitis B patients: hepatic function (ALT)
Method: (§1) A total of 135 patients who met the criteria were included in this study. Patients were randomized and divided into group A, B and C. Group A was the treatment group with 48 patients while group B with 42 patients and group C with 45 patients were positive control groups.
(§2) (2) Treatment Method • Each treatment period lasted for 4 weeks.
(§3) (1) Observe Items • (a) Hepatitis B biological markers: Serum HBV-DNA, HBeAg, Anti-Hbe, HbsAg, Anti-HBs were analyzed before treatment, at week 4, 8, 16 and 32 during treatment and at week 24 and 48 after treatment termination. • Serum HBV-DNA was measured by polymerase chain reaction (PCR) using 9600 DNA Amplification Machine (PE corp., USA) and reagents from E-li-kang Biotech. Corp., Zhejiang, Wenzhou, China. Serum HBeAg, anti-HBe, HBsAg, and Anti-HBs were determined by the Imx method using Automatic Quick Micro Immune Analytic Instrument and reagents from Abbott Laboratories, USA. • (b) Hepatic functions: ALT was monitored at week 4, 8, 16 and 32 during treatment and at week 24 and 48 after treatment termination. • (c) Adverse effects: Patients were constantly monitored by the medical staff for adverse effect throughout the treatment periods.
Data obtained at weeks 4, 8, 16, and 32 during treatment and at weeks 24 and 48 after treatment termination were analyzed by Chi-square (X^2) and t-test. […]

[2] = tested on: Chronic Hepatitis B (HBV); experiment: Clinical study of YGK and lamivudine in chronic hepatitis B patients: serum biological markers (Example 6)
Method: Patients were randomized and divided into group A, B and C. Group A was the treatment group with 48 patients while group B with 42 patients and group C with 45 patients were positive control groups.
as §2, §3
Data obtained at weeks 4, 8, 16, and 32 during treatment and at weeks 24 and 48 after treatment termination were analyzed by Chi-square (X^2) and t-test. The statistical results obtained were used to evaluate the therapeutic effects.

[3] = Clinical study of YGK and lamivudine in chronic hepatitis B patients: adverse effects; details: after 16 weeks of treatment, of 42 patients; disappeared after 2 more weeks
Method: as §1, §2, §3

[4] = number of patients after 4 weeks of treatment
[5] = number of patients after 8 weeks of treatment
[6] = number of patients after 16 weeks of treatment
[7] = number of patients after 32 weeks of treatment
[8] = number of patients at week 24 after treatment termination
[9] = number of patients at week 48 after treatment termination

## Nc1ccn([C@@H]2CS[C@H](CO)O2)c(=O)n1 [lamivudine, (2R, cis)-4-amino-1-(2-hydroxmethyl-1,3-oxathiolan-5-yl)-(1H)-pyrimidin-2-one]
[1]; after 4 weeks of treatment
  patients with normal ALT: 66.6%
[1]; [4]
  patients with normal ALT: 28**
[2]; after 16 weeks of treatment
  HBeAg seroconversion: 4.8%
  patients with negative HBV DNA: 61.9%
[2]; after 32 weeks of treatment
  HBV DNA negative conversion: 90.5%
  HBeAg seroconversion: 9.5%
[2]; after lamivudine treatment
  rate for patients turning negative in HBeAg: 9.5%
[2]; [4]
  Seroconversion of HBeAg: 0**
  Seroconversion of HBsAg: 0
  Seroconversion of anti-Hbe: 0**
[2]; [5]
  Seroconversion of Anti-HBs: 0
  Seroconversion of HBeAg: 0**
  Seroconversion of HBsAg: 0**
  Seroconversion of anti-HBe: 0**
[2]; [6]
  Seroconversion of Anti-HBs: 0
  Seroconversion of HBeAg: 2**
  Seroconversion of HBsAg: 0**
  Seroconversion of anti-HBe: 0**
[2]; [7]
  Seroconversion of Anti-HBs: 1
  Seroconversion of HBeAg: 4**
  Seroconversion of HBsAg: 1**
  Seroconversion of anti-HBe: 4**
[2]; [8]
  Seroconversion of Anti-HBs 24W: 1**
  Seroconversion of HBeAg 24W: 4**
  Seroconversion of HBsAg 24W: 1**
  Seroconversion of anti-HBe 24W: 4**
[2]; [9]
  Seroconversion of Anti-HBs 48W: 0**
  Seroconversion of HBeAg 48W: 0**
  Seroconversion of HBsAg 48W: 0**
  Seroconversion of anti-HBe 48W: 0**
[2]; of the 38 patients HBV DNA negative during treatment, week 48 after treatment termination
  patients relapsed to positive for HBV DNA: 12
[2]; week 48 after treatment termination
  overall HBV DNA seroconversion rate: 61.9%
[3]
  patients showing adverse effects (anorexia, abdominal discomfort, fluctuating ALT levels): 8
